The source of these data is publication PMC5608272 (PLoS ONE, 2017).

One data set concerns the target T1, Human cGAS (aa 2–522) (Homo sapiens, UniProt Q8N884).
T1 construct: Amino acids 2-522 of human MB21D1 (Uniprot ID: Q8N884); made in house; host or cells: Spodoptera frugiperda Sf-9 (baculovirus)
The experiment in a line: cGAS activity mass spectrometry assay (cGAMP production by LC-MS). It is filed as biochemical. The settings on record: for effect of metals on cGAS activity: 1 nM cGAS, 1 nM dsDNA, in words; for Km: other nucleotide fixed: ATP 1 mM, GTP 300 μM, read-out: apparent Km. The method, then:
cGAS activity was measured in buffer (10 mM Hepes, 140 mM NaCl, 0.01% Tween-20, 5 mM MgCl2, pH 7.5) containing 1 mM ATP, 0.3 mM GTP, 100 nM ISD DNA (45 bp dsDNA), and 100 nM cGAS in the presence or absence of test compounds. […] The reaction was incubated for 30 minutes at 37°C and stopped with the addition of 50 mM EDTA. […] An earlier version of the assay utilized the same buffer and nucleotide conditions but was conducted in the presence of 1 nM cGAS, 1 nM ISD DNA and carried out for 6 h at 37°C before being processed as described above.
50 μl of H2O was added to each 25 μl cGAS reaction (384 well format). The samples were mixed by briefly vortexing followed by a 10 min, 3000 g centrifugation at room temperature. […] 10 μl of sample was injected on to a 2x30 mm hypercarb column (Thermo Scientific) kept at 60°C with a flow rate of 0.8 ml/min and a loop sweep time of 20 s. Mobile phase A consisted of 10 mM Ammonium Acetate, pH 10, and Mobile phase B consisted of 90:10 (Acetonitrile:Acetone 1:1): 10 mM Ammonium Acetate pH 10 + 0.1% formic acid. […] ATP and GTP had the following optimized parameters: dp 99 ep 10 ce 64 cxp 10. […] The data was processed using Sciex's Multiquant 3.0.

In another data set the test system is mAb 80–2. Nature of the data set: Competition ELISA, mAb 80–2 binding to BSA-cGAMP. Also on record: species or system mouse. The settings on record: preincubated 1 hr; ATP, GTP at mM concentrations; in words. The method, then: After washing, plates were developed with substrate, the reaction was stopped with 2 N H2SO4 and OD was read at 450 nm. […] After incubation for 1 hr, plates were washed, incubated with secondary antibody, and developed as described above.
For orientation: An ELISA detects its analyte on a solid surface through an enzyme-linked reagent.

For data set [1], the target named is T2, cGAS (Homo sapiens, UniProt Q8N884). The experiment in a line: SPR binding to immobilized cGAS. The settings on record: for Kd: absence of activating dsDNA, 4 °C. How it is done:
SPR assays. SPR experiments were performed using NTA sensor chips in a BIACORE T200 (GE Healthcare). cGAS was immobilized to a final density ca 5000-10000 RU. Sample-dependent responses were subtracted from channel 1, which had neither Ni or protein immobilized on it. Data were further corrected by subtracting a zero-concentratio blank from all compounds. Compounds were injected for 30-60 s, dissociation was measured for 30-120 s at 60 μL/min, 4 °C. Experiments were performed in buffer contained 20 mM HEPES (pH 7.5), 150 mM KCl, 20 mM MgCl2, 1 mM TCEP and 1% DMSO. Samples were injected with a top concentration, followed by 2-fold dilutions, and a final blank over 12 injection points. […] Dissociation equilibrium constants (KD) were determined using a binary association model (T200 BIA Eval software).
Target sequence in this assay (Q8N884 whole entry): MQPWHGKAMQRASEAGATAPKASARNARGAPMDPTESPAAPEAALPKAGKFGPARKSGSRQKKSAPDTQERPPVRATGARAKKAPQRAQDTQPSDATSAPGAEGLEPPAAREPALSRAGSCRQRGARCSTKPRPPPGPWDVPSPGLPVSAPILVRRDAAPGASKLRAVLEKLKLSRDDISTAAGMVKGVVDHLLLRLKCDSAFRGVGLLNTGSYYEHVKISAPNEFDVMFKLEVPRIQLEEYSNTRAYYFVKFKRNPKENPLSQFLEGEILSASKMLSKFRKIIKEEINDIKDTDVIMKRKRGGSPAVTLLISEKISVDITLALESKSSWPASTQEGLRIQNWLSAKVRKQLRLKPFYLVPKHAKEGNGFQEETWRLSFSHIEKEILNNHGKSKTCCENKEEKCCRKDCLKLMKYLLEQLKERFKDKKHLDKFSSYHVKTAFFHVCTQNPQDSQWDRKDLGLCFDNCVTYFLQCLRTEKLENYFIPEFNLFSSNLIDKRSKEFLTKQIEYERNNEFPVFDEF

Data set [2] has as its target T2, cGAS. The experiment in a line: Cy5-cGAMP fluorescence polarization assay of cGAS activity. Also noted: Amino acids 2-522 of human MB21D1 (Uniprot ID: Q8N884); made in house; host or cells: Spodoptera frugiperda Sf-9 (baculovirus). It is filed as biochemical. On the technique in general: Polarisation of emitted light reports the rotation of a fluorescent probe.
Target sequence in this assay (Q8N884 2-522): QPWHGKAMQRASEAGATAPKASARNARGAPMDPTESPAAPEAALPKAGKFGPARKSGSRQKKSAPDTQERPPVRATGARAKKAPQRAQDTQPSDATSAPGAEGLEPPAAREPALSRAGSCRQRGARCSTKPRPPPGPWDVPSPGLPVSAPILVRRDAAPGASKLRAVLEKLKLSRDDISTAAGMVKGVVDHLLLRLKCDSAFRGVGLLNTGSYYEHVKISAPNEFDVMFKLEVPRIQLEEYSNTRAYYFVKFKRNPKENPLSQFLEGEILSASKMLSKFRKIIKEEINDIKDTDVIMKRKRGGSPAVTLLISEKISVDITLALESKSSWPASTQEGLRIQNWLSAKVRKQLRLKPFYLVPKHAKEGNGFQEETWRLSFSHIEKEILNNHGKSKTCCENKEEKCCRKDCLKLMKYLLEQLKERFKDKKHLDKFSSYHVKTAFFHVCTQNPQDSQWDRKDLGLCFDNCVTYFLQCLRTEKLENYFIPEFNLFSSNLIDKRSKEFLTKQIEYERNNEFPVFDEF
Data set [3] relates to dsDNA-induced IFN-beta expression. The experiment in a line: Cellular cGAS assay: dsDNA-induced IFN-beta expression via luciferase reporter in THP-1 Dual cells. It is filed as cell-based, human. The method, then:
(§1) Cellular Assays. THP-1 Dual monocytes cells containing NF-κB-SEAP and IRF-Luc Reporter (InvivoGen cat # thpd-nfis) were plated at 1x10^5 cells/well in U bottom 96 well plates in 100μL RPMI media containing10% FBS. Tested compounds were diluted in 100% DMSO to stock concentration of 30 mM. The TBK1 inhibitor BX-795 was obtained from Sigma-Aldrich (cat#SML0694-5MG) and used as a positive control. Cells were pretreated with DMSO or compounds for 1 hr at room temperature, followed by Lipofectamine™ 2000 (Thermo Fisher cat# 11668027) transfection with salmon sperm DNA (InvivoGen cat# tlrl-sdef) at 100 ng/well. Cells were incubated for 12 hrs at 37 ^◦C in a 5% CO2 incubator followed by centrifugation at 1000 rpm for 5 min. Media was collected and Lucia luciferase was measured using Quanti-Luc substrate (InvivoGen cat# rep-qlc1) according to the manufacturer’s protocol. Viability of cells was assessed using Promega CellTiter Glo luminescent viability assay (Promega cat# G7570) according to the manufacturer’s protocol. All data points were normalized to the salmon sperm DNA-treated wells (without compound) and expressed as percent of signal.
On the technique in general: Reporter assays use an easily measured gene product as a stand-in for the process of interest.

The next data set concerns THP-1 Dual cells. Nature of the data set: Cell viability, CellTiter Glo, THP-1 Dual cells. It is filed as cell-based, human. The settings on record: in words. How it is done: as §1
Another data set addresses T3, truncated h-cGAS (Homo sapiens, UniProt Q8N884).
T3 construct: a previously crystalized cGAS construct beginning at residue 161 (cGAS161) (H. sapiens numbering)
The experiment in a line: STD 1H NMR cGAMP competition binding on truncated h-cGAS. The settings on record: mixture with 2´,3´-cGAMP, in words.

Data set [4] in a line: Chemical stability observed on resynthesis. It is filed as physicochemical. The settings on record: upon attempted resynthesis, in words.
Where [5] appears, read: 1 mM ATP, 0.3 mM GTP, 100 nM ISD DNA, 100 nM cGAS, read-out: MS IC50.
Where [6] appears, read: 1 mM ATP, 0.3 mM GTP, 100 nM ISD DNA, 100 nM cGAS, read-out: FP IC50.

Like-named read-outs stand apart in the source and are kept apart here.

T1 sequence (Q8N884 2-522): as above
T3 sequence (Q8N884 161-522 limits assumed): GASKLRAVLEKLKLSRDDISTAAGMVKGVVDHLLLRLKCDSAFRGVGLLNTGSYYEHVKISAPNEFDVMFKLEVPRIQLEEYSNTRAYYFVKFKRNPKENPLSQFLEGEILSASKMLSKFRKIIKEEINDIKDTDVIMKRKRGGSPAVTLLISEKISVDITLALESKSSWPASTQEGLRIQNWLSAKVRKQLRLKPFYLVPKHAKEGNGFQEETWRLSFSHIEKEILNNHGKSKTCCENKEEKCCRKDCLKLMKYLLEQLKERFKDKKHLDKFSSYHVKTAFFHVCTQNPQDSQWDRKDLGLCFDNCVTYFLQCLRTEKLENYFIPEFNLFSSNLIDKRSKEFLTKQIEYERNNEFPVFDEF
Procedure for truncated h-cGAS: Nuclear Magnetic Resonance (NMR). All NMR spectra were collected on a Bruker Avance III series 600 MHz spectrometer equipped with a 1.7 mm micro cryoprobe. For fragment screening, the Pfizer fragment library (~3,200 fragments) was screened against 3 μM truncated h-cGAS in 20 mM hepes (pH 7.5) buffer containing 150 mM KCl and 1 mM TCEP, and no DNA. The concentration of each fragment was 300 µM, and each sample contains either five or ten fragments in the mixture. Saturation transfer difference (STD) spectra for each fragment mixture were collected and binders were identified by comparing their STD signals with 1D reference spectra of the fragments in the mixture.

With `[Cl-].[Cl-].[Zn+2]` [zinc, ZnCl2], the “effect of metals on cGAS activity” value at Human cGAS (aa 2–522) is reported as “increased enzymatic activity”.
In general, Km refers to the concentration of substrate that gives half-maximal velocity. `Nc1ncnc2c1ncn2[C@@H]1O[C@H](COP(=O)(O)OP(=O)(O)OP(=O)(O)O)[C@@H](O)[C@H]1O` [ATP]: the Michaelis-Menten constant (Km) at Human cGAS (aa 2–522) was 35 µM. Further, the “inhibition of mAb 80–2 binding to BSA-cGAMP” value in the data set on mAb 80–2 is listed as “neither ATP nor GTP at mM concentrations inhibited the binding”.
In general, Kd refers to the equilibrium constant for the complex coming apart. A higher Kd goes with a looser complex. A word on the IC50: it is the point on the concentration scale where inhibition reaches its midpoint. Take `O=C(NCCO)c1cnn2c(=O)cc(-c3ccccc3)[nH]c12` [Compound 17, N-(2-hydroxyethyl)-7-oxo-5-phenyl-4,7-dihydropyrazolo[1,5-a]pyrimidine-3-carboxamide]: the dissociation constant (Kd) on cGAS [1] was 12.5 µM. Further, the concentration for half-maximal inhibition (IC50) at Human cGAS (aa 2–522) (setting [5]) was 19 µM; at cGAS [2] (setting [6]), 15.1 µM.
In turn, `C[C@@H](CO)NC(=O)c1cnn2c(=O)cc(-c3ccccc3)[nH]c12` [Compound 19, (S)-N-(1-hydroxypropan-2-yl)-7-oxo-5-phenyl-4,7-dihydropyrazolo[1,5-a]pyrimidine-3-carboxamide] registered a Kd on cGAS [1] of 2.7 µM. Also, the values for the 50% inhibitory concentration (IC50) at Human cGAS (aa 2–522) (setting [5]) and at cGAS [2] (setting [6]) were 8.1 µM and 17.5 µM, respectively.
Regarding `O=C(O)CNC(=O)c1cnn2c(=O)cc(-c3ccccc3)[nH]c12` [Compound 18, (7-oxo-5-phenyl-4,7-dihydropyrazolo[1,5-a]pyrimidine-3-carbonyl)glycine], the Kd on cGAS [1] was 6.7 µM. The IC50 at Human cGAS (aa 2–522) amounted to 21 µM; on cGAS [2], 10.6 µM.
On to `O=C(NCCCNc1nc(Nc2cccc(NC(=O)N3CCCC3)c2)ncc1I)c1cccs1` [BX-395, reference compound], for which the IC50 in data set [3] (Homo sapiens, THP1-Dual, positive control, read-out: IC50, inhibition of IFN-β induction) is ~0.06 µM.
Regarding `CNC(=O)c1cnn2c(=O)cc(-c3ccccc3)[nH]c12` [Compound 16, N-methyl-7-oxo-5-phenyl-4,7-dihydropyrazolo[1,5-a]pyrimidine-3-carboxamide], the affinity at cGAS [1], expressed as Kd, was 78 µM. Besides, the half-maximal inhibitory concentration (IC50) on Human cGAS (aa 2–522) (setting [5]) was 69 µM; at cGAS [2] (setting [6]) it was 125 µM; on cGAS [2] (text summary of Fig 3, spans MS and FP assay values, read-out: IC50, inhibition of cGAS functional activity), 69 to 125 µM.
In the case of `[Cu][Br]` [copper, CuBr], the “effect of metals on cGAS activity” value on Human cGAS (aa 2–522) is on record as “very sensitive to inhibition”.
`O=C(N[C@H]1CCCC[C@H]1C(=O)O)c1cnn2c(=O)cc(-c3ccccc3)[nH]c12` [PF-06928215, (1R,2S)-2-(7-oxo-5-phenyl-4,7-dihydropyrazolo[1,5-a]pyrimidine-3 carboxamido) cyclohexane-1-carboxylic acid]: at cGAS [1] (SPR sensorgram, in words), the off rate kinetics entry was “longer off rate kinetics than any other compound in this series”. In addition, the “activity on dsDNA-induced IFN-beta expression” value in data set [3] (salmon sperm DNA 12 hrs, in words) was “no activity”. The “effect on cell viability” value with THP-1 Dual cells was “minimal effect on cell viability”.
`Oc1cc(-c2ccccc2)nc2nnnn12` [Compound 15] returned a Kd at cGAS [1] of 171 µM. The “competition with 2´,3´-cGAMP for interacting with cGAS (1H STD)” value on truncated h-cGAS is listed as “out competed 2´,3´-cGAMP”. Besides, the chemical stability result in data set [4] is “not chemically stable and readily isomerizes via an open-ring azidopyrimidine”.
With `CC(=O)[O-].CC(=O)[O-].[Pd+2]` [palladium, Pd(OAc)2], the “effect of metals on cGAS activity” value on Human cGAS (aa 2–522) was “very sensitive to inhibition”.
As to `Nc1nc2c(ncn2[C@@H]2O[C@H](COP(=O)(O)OP(=O)(O)OP(=O)(O)O)[C@@H](O)[C@H]2O)c(=O)[nH]1` [GTP], at Human cGAS (aa 2–522), the Michaelis constant (Km) is 30 µM. Moreover, the “inhibition of mAb 80–2 binding to BSA-cGAMP” value in the data set with mAb 80–2 is “neither ATP nor GTP at mM concentrations inhibited the binding”.
